Measured values taken from US9149038B2, “4-amino-6-(heterocyclic)picolinates and 6-amino-2-(heterocyclic)pyrimidine-4-carboxylates and their use as herbicides” (Dow AgroSciences LLC, priority 2013, dated 2015).
Read-outs that look alike come from different tables or passages of the source.

Key:
[1] = system: Key Grass and Sedge Weeds as well as Grass Crops; assay: Post-Emergent Test II: postemergent herbicidal activity, visual rating after 14 d (Table 8); assay type: in vivo; settings: post-emergence, 336 h; for pest or weed control at 35 g/ha: 35 g ai/ha; for pest or weed control at 70 g/ha: 70 g ai/ha; for pest or weed control at 140 g/ha: 140 g ai/ha
Method in brief: (§1)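 Plants were raised in a greenhouse for 7-21 d and treated once at the first or second true leaf stage. Compounds, dissolved in 97:3 acetone:DMSO then diluted into an aqueous acetone/isopropanol/crop oil/Triton X-155 carrier, were applied by overhead track sprayer at 187 L/ha. After 14 d with subirrigation, injury was scored visually from 0 (none) to 100 (complete kill).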

[2] = system: Key Broadleaf Weed and Crop Species; assay: Post-Emergent Test II: postemergent herbicidal activity, visual rating after 14 d (Table 7); assay type: in vivo; settings: post-emergence, 336 h; for pest or weed control at 35 g/ha: 35 g ai/ha; for pest or weed control at 70 g/ha: 70 g ai/ha; for pest or weed control at 140 g/ha: 140 g ai/ha
Method in brief: as §1

[3] = barnyardgrass (Echinochloa crus-galli), read-out: Visual Growth Reduction (%) 14 Days After Application, ECHCG
[4] = giant foxtail (Setaria faberi), read-out: Visual Growth Reduction (%) 14 Days After Application, SETFA
[5] = maize, corn (Zea mays), read-out: Visual Growth Reduction (%) 14 Days After Application, ZEAMX
[6] = rice (Oryza sativa), read-out: Visual Growth Reduction (%) 14 Days After Application, ORYSA
[7] = wheat, spring (Triticum aestivum), read-out: Visual Growth Reduction (%) 14 Days After Application, TRZAS
[8] = yellow nutsedge (Cyperus esculentus), read-out: Visual Growth Reduction (%) 14 Days After Application, CYPES
[9] = ABUTH: velvetleaf (Abutilon theophrasti), read-out: Visual Growth Reduction (%) 14 Days After Application ABUTH
[10] = AMARE: redroot pigweed (Amaranthus retroflexus), read-out: Visual Growth Reduction (%) 14 Days After Application AMARE
[11] = BRSNN: oilseed rape, canola (Brassica napus), read-out: Visual Growth Reduction (%) 14 Days After Application BRSNN
[12] = CHEAL: lambsquarters (Chenopodium album), read-out: Visual Growth Reduction (%) 14 Days After Application CHEAL
[13] = EPHHL: wild poinsettia (Euphorbia heterophylla), read-out: Visual Growth Reduction (%) 14 Days After Application EPHHL
[14] = HELAN: sunflower (Helianthus annuus), read-out: Visual Growth Reduction (%) 14 Days After Application HELAN

COC(=O)c1nc(-c2ccc(Cl)c3c2OC(F)(F)O3)cc(N)c1Cl [Compound 86]
60 to 74%: pest or weed control at 35 g/ha [1, 8] | pest or weed control at 70 g/ha [1, 8] | pest or weed control at 140 g/ha [1, 8]
0 to 29%: pest or weed control at 35 g/ha [1, 3] | pest or weed control at 70 g/ha [1, 3] | pest or weed control at 140 g/ha [1, 3] | pest or weed control at 35 g/ha [1, 4] | pest or weed control at 70 g/ha [1, 4] | pest or weed control at 140 g/ha [1, 4] | pest or weed control at 35 g/ha [1, 6] | pest or weed control at 70 g/ha [1, 6] | pest or weed control at 140 g/ha [1, 6] | pest or weed control at 35 g/ha [1, 7] | pest or weed control at 70 g/ha [1, 7] | pest or weed control at 140 g/ha [1, 7] | pest or weed control at 35 g/ha [2, 13] | pest or weed control at 70 g/ha [2, 13] | pest or weed control at 140 g/ha [2, 13]
75 to 84%: pest or weed control at 35 g/ha [2, 9] | pest or weed control at 35 g/ha [2, 11] | pest or weed control at 70 g/ha [2, 11] | pest or weed control at 35 g/ha [2, 14]
85 to 94%: pest or weed control at 35 g/ha [1, 5] | pest or weed control at 70 g/ha [1, 5] | pest or weed control at 70 g/ha [2, 9] | pest or weed control at 140 g/ha [2, 9] | pest or weed control at 140 g/ha [2, 11] | pest or weed control at 70 g/ha [2, 14] | pest or weed control at 140 g/ha [2, 14]
95 to 100%: pest or weed control at 140 g/ha [1, 5] | pest or weed control at 35 g/ha [2, 10] | pest or weed control at 70 g/ha [2, 10] | pest or weed control at 140 g/ha [2, 10] | pest or weed control at 35 g/ha [2, 12] | pest or weed control at 70 g/ha [2, 12] | pest or weed control at 140 g/ha [2, 12]
